Series [1] can be described thus: stability at room temperature (remark with characterisation data). The class given is physicochemical.
In a further series the test system is BJ vs. BJ-ELR. The experiment in a line: Assessment of Cancer/Normal Selective Toxicity (crystal violet). It is filed as cell-based, human. As to conditions: crystal violet staining, 48 h.
For series [2], the system named is EJ bladder carcinoma line. The experiment in a line: Glutathione Assay (GSH/GSSG-Glo), total cellular glutathione. The settings on record: EJ cells, 3 h treatment.
The subject of the next series is HeLa. The series can be described thus: ATP Assay (CellTiter-Glo), cellular ATP levels as surrogate for cell viability. It is filed as cell-based, human. The procedure:
(§1) ATP Assay. […] At that time, media was removed and replaced with a solution of CellTiter-Glo reagent (Promega) in PBS. After ten minutes, luminescence was read using an EnVision multilabel plate reader (Perkin-Elmer) and signal intensity was calculated relative to in-plate DMSO control wells.
(§2) We next sought to determine the performance of the synthetic analogs relative to PL in cells. […] As a second assay, effects of compound treatments on ATP levels, a surrogate for cell viability, were measured after 48 hours.
(§3) Assays were performed in 384-well plates on two human cancer cell lines, H1703 (lung) and HeLa (cervix).

In the next series the test system is H1703. The series is described as above. The class given is cell-based, human. The procedure:
as §1, §2, §3

In series [3] the test system is HeLa cells. The experiment in a line: Immunofluorescence Detection of Glutathionylated Proteins. As to conditions: for elevation of protein glutathionylation (in words): HeLa cells, monoclonal antibody recognizing glutathione.
For series [4], the system named is HeLa cells. The experiment in a line: Glutathione Assay (GSH/GSSG-Glo), total cellular glutathione. The class given is cell-based, human. As to conditions: 6 h treatment.
Series [5] concerns H1703 (lung) and HeLa (cervix). The experiment in a line: ROS Assay (CM-H2DCF-DA, automated microscopy). The class given is cell-based, human. The settings on record: 90 minutes after compound treatment.
Series [6] has as its system H1703 (lung) and HeLa (cervix). The series can be described thus: ATP assay / cellular toxicity, covering both cell lines. The class given is cell-based, human. The settings on record: two cell lines tested, ATP levels after 48 h.
Setting [7] is: Homo sapiens, HeLa; Table 1; cellular ATP levels, 48 h; read-out: EC50 HeLa.
[8] abbreviates: Table 2; cellular ATP levels, 48 h; read-out: EC50 HeLa.
[9] abbreviates: Homo sapiens, NCI-H1703; Table 1; cellular ATP levels, 48 h; read-out: EC50 H1703.
Where [10] appears, read: Table 2; cellular ATP levels, 48 h; read-out: EC50 H1703.
Setting [11] is: Homo sapiens, HeLa; Table 2; cellular ATP levels, 48 h; read-out: EC50 HeLa.
Setting [12] is: Homo sapiens, NCI-H1703; Table 2; cellular ATP levels, 48 h; read-out: EC50 H1703.

The structures appear in SMILES notation. Where two headings read alike, the source gives them in different places.

On to `COc1cc(/C=C/C(=O)N2CCC=C(C#CCN(C)C)C2=O)cc(OC)c1OC` [(E)-3-(3-(dimethylamino)prop-1-ynyl)-1-(3-(3,4,5-trimethoxyphenyl)prop-2-enoyl)-5,6-dihydropyridin-2(1H)-one], for which the “stability at room temperature” value in series [1] is listed as “decomposes slowly at room temperature”.

As for `S=C=NCCc1ccccc1` [Phenethylisothiocyanate, reference compound], in the series with BJ vs. BJ-ELR, the “selective toxicity toward transformed BJ-ELR over BJ fibroblasts (in words)” value is “showed selectivity in this assay”.

For the compound `COc1cc(/C=C/C(=O)N2CCC=CC2=O)cc(OC)c1OC` [compound 1, piperlongumine, reference compound], the “decrease in total cellular glutathione” value in series [2] is on record as “ca. 60%”. Further, the EC50 in the series on HeLa (Homo sapiens, HeLa, 48 h, read-out: EC50 HeLa) was 7.1 µM; in the series on H1703 (Homo sapiens, NCI-H1703, 48 h, read-out: EC50 H1703) it was 2.8 µM. In addition, the “elevation of protein glutathionylation (in words)” value in the series on HeLa cells [3] is “large and rapid elevations in protein glutathionylation”. The “reversal of protein glutathionylation by 0.1 M dithiothreitol” value in the series with HeLa cells [3] (treatment with 0.1 M dithiothreitol) is “could not be reversed”. Also, the “decrease in total glutathione (in words)” value in the series on HeLa cells [4] is “most effective”.

`COc1cc(/C=C/C(=O)N2CCCCC2=O)cc(OC)c1OC` [compound 2, 1-[(2E)-3-(3,4,5-trimethoxyphenyl)prop-2-enoyl]piperidin-2-one]: the “elevation of ROS levels (in words)” value in [5] is reported as “neither elevated ROS levels”. Moreover, the EC50 with HeLa (setting [7]), with HeLa (setting [8]), in the series with H1703 (setting [9]) and with H1703 (setting [10]) was above 20 µM in each case.

With `COc1cc(/C=C/C(=O)N2CCC=C(C#CC3CC3)C2=O)cc(OC)c1OC` [compound 5, (E)-3-(cyclopropylethynyl)-1-(3-(3,4,5-trimethoxyphenyl)prop-2-enoyl)-5,6-dihydropyridin-2(1H)-one], the concentration for a half-maximal effect (EC50) in the series on HeLa (setting [7]) was 1.3 µM; in the series on H1703 (setting [9]) it was 0.7 µM. The “elevation of protein glutathionylation (in words)” value in the series on HeLa cells [3] was “large and rapid elevations in protein glutathionylation”.

Turning to `COC(=O)CSC1CCN(C(=O)/C=C/c2cc(OC)c(OC)c(OC)c2)C(=O)C1` (stereo not shown) [compound 25], the “elevation of ROS levels (in words)” value in series [5] was “substantially less potent than PL”. Moreover, in series [6], the “viability / cellular toxicity (in words)” value is on record as “substantially less potent than PL at inducing cancer cell death”. In addition, the half-maximal effective concentration (EC50) is above 20 µM in the series with HeLa (read-out: EC50 HeLa; Table 2; cellular ATP levels, 48 h) and 7.9 µM in the series on H1703 (read-out: EC50 H1703; Table 2; cellular ATP levels, 48 h).

Regarding `COc1cc2c(c(OC)c1OC)CCC(C(=O)N1CCC=CC1=O)=C2` [compound 29, 1-(5,6,7-trimethoxy-3,4-dihydronaphthalene-2-carbonyl)-5,6-dihydropyridin-2(1H)-one], the “elevation of ROS levels (in words)” value in series [5] is “robust enhancement of ROS levels”. Also, the “viability / cellular toxicity (in words)” value in series [6] is on record as “diminished cell death relative to PL”. In addition, in [2], the “decrease in total cellular glutathione” value was “ca. 60%”. In addition, the EC50 in the series with HeLa (setting [8]) was above 20 µM; in the series with H1703 (setting [10]), 14 µM. Moreover, the “elevation of protein glutathionylation (in words)” value with HeLa cells [3] was “minimal elevation”.

`O=C1C=CCCN1S(=O)(=O)/C=C/c1ccccc1` [compound 52, 1-{[(E)-2-phenylvinyl]sulfonyl}-5,6-dihydropyridin-2(1H)-one]: the “selective toxicity toward transformed BJ-ELR over BJ fibroblasts (in words)” value in the series with BJ vs. BJ-ELR is listed as “selectivity comparable to PL”. The EC50 is 4.1 µM in the series on HeLa (setting [8]) and 2.7 µM in the series with H1703 (setting [10]).

As for `COc1cc(/C=C/C(=O)N2CCC=C(C#Cc3ccccc3)C2=O)cc(OC)c1OC` [compound 61], the EC50 came out at 1.5 µM with HeLa (setting [11]) and 0.5 µM in the series with H1703 (setting [12]).

Turning to `O=C1C=CCCN1C(=O)/C=C/c1cccc(Br)c1` [compound 62], the EC50 is 7 µM in the series with HeLa (setting [11]) and 5 µM in the series on H1703 (setting [12]).

In the case of `COc1cc(/C=C/C(=O)N2CCC=C(C#CCc3ccccc3)C2=O)cc(OC)c1OC` [compound 63], the EC50 with HeLa (setting [11]) is 10 µM; with H1703 (setting [12]) it was 2 µM.

`COc1cc(/C=C/C(=O)N2CCC=CC2=O)cc(OC)c1OCCN(C)CCOc1c(OC)cc(/C=C/C(=O)N2CCC=CC2=O)cc1OC` [compound 67]: the EC50 with HeLa (setting [11]) came out at 0.5 µM; with H1703 (setting [12]), 0.2 µM.

For `COc1cc(/C=C/C(=O)N2CCC=C(C#Cc3ccc(F)cc3)C2=O)cc(OC)c1OC` [compound 68], the EC50 came to 0.9 µM in the series on HeLa (setting [11]) and 0.4 µM in the series with H1703 (setting [12]).

`COc1cc(/C=C/C(=O)N2CCC=C(C#Cc3ccsc3)C2=O)cc(OC)c1OC` [compound 69]: the EC50 was 2 µM in the series with HeLa (setting [11]) and 1 µM with H1703 (setting [12]).

For `O=C1C=CCCN1C(=O)/C(F)=C/c1ccccc1` [compound 70], the values for the EC50 in the series on HeLa (setting [11]) and in the series with H1703 (setting [12]) were above 20 µM and 10 µM, respectively.

`COc1cc(/C=C/C(=O)N2CCC=C(c3ccc(Oc4ccccc4)cc3)C2=O)cc(OC)c1OC` [compound 71]: the half-maximal effective concentration (EC50) in the series with HeLa (setting [11]) and with H1703 (setting [12]) was above 20 µM throughout.

On to `C=C(C)C(=O)N1CCC=CC1=O` [compound 73], for which the values for the EC50 with HeLa (setting [11]) and with H1703 (setting [12]) were 19 µM and 4.7 µM, respectively.

Consider `O=C1C=CCCN1C(=O)/C=C/C(=O)N1CCC=CC1=O` [compound 74], for which the EC50 came out at 11 µM in the series on HeLa (setting [11]) and 2.3 µM in the series with H1703 (setting [12]).

As for `O=C(C#Cc1ccccc1)N1CCC=CC1=O` [compound 75], the EC50 turned out to be 4.1 µM in the series with HeLa (setting [11]) and 0.91 µM in the series with H1703 (setting [12]).

As for `O=C1C=CCCN1C(=O)CCC(=O)N1CCC=CC1=O` [compound 77], the concentration for a half-maximal effect (EC50) with HeLa (setting [11]) worked out at 15 µM; with H1703 (setting [12]) it was 5.5 µM.

`O=C1C=CCCN1C(=O)/C=C/c1ccc(/C=C/C(=O)N2CCC=CC2=O)cc1` [compound 78]: the EC50 with HeLa (setting [11]) was determined as 0.78 µM; in the series on H1703 (setting [12]), 0.3 µM.

One may read the EC50 as the concentration at which the effect is half-maximal.

For the origin of these results see patent US9108923B2, “Compounds, compositions, and methods for cancer therapy” (The Broad Institute, Inc., priority 2012, dated 2015).
